Measurements reported in patent publication US20260374818A1, “CATIONIC PEPTIDES WITH BROAD SPECTRUM ACTIVITY” (priority 2023, published 2026).
In brackets after ≈: the same amount, converted by molar mass. Where a SMILES comes first, the peptide text is derived from it. [ ]: non-standard residue; d: D form.

Key:
[1] = system: MRSA USA300; assay: Biofilm inhibition (at least 80%), MRSA; type: cell-based, methicillin resistant Staphylococcus aureus; settings: n = 4, 10% TSB + 0.1% glucose, 18-24 hours, crystal violet
[2] = system: Acinetobacter baumannii Ab5075; assay: Biofilm inhibition (at least 80%), A. baumannii; type: cell-based; settings: n = 4, BM2 minimal media, 18-24 hours, crystal violet
[3] = system: MRSA USA 300; assay: MIC (broth microdilution) of peptides, MRSA; type: cell-based, methicillin resistant Staphylococcus aureus; settings: MRSA USA300; mode of three biological replicates
Protocol: (§1) Minimal inhibitory concentration (MIC) against planktonic bacteria: The MIC of the synthetic peptides was determined in Mueller-Hinton broth (MHB) using the broth microdilution method described previously [Wiegand, I., Hilpert, K., & Hancock, R. E. (2008). Agar and broth dilution methods to determine the minimal inhibitory concentration (MIC) of antimicrobial substances. Nature Protocols, 3(2), 163-175]. Briefly, 10 μl of a 10× concentrated peptide solution was placed in the bottom of a well in a 96-well polypropylene round bottom plate (Corning Inc.). A bacterial suspension of ~5×10^5 CFU/ml was prepared from an overnight culture and 90 μl of this was added to each well. […] Bacteria tested included P. aeruginosa PAO1, MRSA USA300 LAC, Staphylococcus haemolyticus, Staphylococcus epidermidis, Klebsiella pneumoniae and Streptococcus salivarius.
(§2) Finally, the AB103-D derivatives that were the least aggregation prone and which produced the lowest toxic effects in vivo were evaluated for their direct antibacterial activity towards several pathogens of clinical relevance using a standard minimum inhibitory concentration (MIC) assay [Wiegand, I., Hilpert, K., & Hancock, R. E. (2008). Agar and broth dilution methods to determine the minimal inhibitory concentration (MIC) of antimicrobial substances. Nature Protocols, 3(2), 163-175]. Specifically, peptides AB110-D, AB111-D, AB114-D and AB115-D were tested against P. aeruginosa PAO1, MRSA USA 300, Staphylococcus haemolyticus, Staphylococcus epidermidis, Klebsiella pneumoniae and Streptococcus salivarius and compared against the antibacterial activity of DJK-5 and AB103-D (Table 7). Overall, the antibacterial potency of all of the AB103-D derivatives was stronger than that seen for DJK-5, particularly in the case of the Gram-negative pathogens P. aeruginosa and K. pneumoniae. […]

[4] = system: Enterococcus faecium #2-1; assay: Biofilm inhibition (at least 80%), E. faecium; type: cell-based; settings: E. faecium #2-1; n = 3; TSB + 1% glucose; 48 hours; crystal violet
[5] = system: MRSA USA300; assay: Murine sinusitis model, MRSA; type: in vivo, mouse; methicillin resistant Staphylococcus aureus
From the text: (§3) FIGS. 15A-15I show peptides AB101-D, AB102-D and AB103-D compared to DJK5 in a murine sinusitis model of bacterial infections. MRSA USA300, nasal cavity (FIG. 15A) P. aeruginosa LESB58 (FIG. 15B and FIG. 15C, nasal cavity); MRSA USA300, lung tissue (FIG. 15D) P. aeruginosa LESB58 (FIG. 15E and FIG. 15F, lung tissue); and MRSA USA300, weight change (FIG. 15G) P. aeruginosa LESB58 (FIG. 15H and FIG. 15I, weight change).
(§4) A murine sinusitis model of bacterial infections in the nasal cavity of mice [Alford et al. (2021). Murine model of sinusitis infection for screening antimicrobial and immunomodulatory therapies. Frontiers in Cellular and Infection Microbiology., 11, 621081] was used to determine the efficacy of D-amino acid peptides AB101-D, AB102-D and AB103-D compared to DJK5. […]. Treatment was applied either as dropwise administration of a peptide solution (20 μl) to the infected naris of a mouse (FIGS. 15A, 15B, 15D, 15E, 15G, 15H) or peptide was delivered using a Respimat® inhaler device (FIGS. 15C, 15F, 15I). Mice were monitored and weighed once daily for up to three days then euthanized prior to collection of nasal lavage fluid and lung tissue for bacterial enumeration. The limit of detection is shown by the dotted line at log CFU=2. […] Accordingly, the results indicated enhanced efficacy of D-amino acid peptides AB101-D, AB102-D and AB103-D compared to DJK5 in this murine model.

[6] = system: P. aeruginosa LESB58; assay: Murine sinusitis model, P. aeruginosa; type: in vivo, mouse; Pseudomonas aeruginosa
From the text: as §3, §4

[7] = system: P. aeruginosa PAO1; assay: Biofilm inhibition (at least 80%), P. aeruginosa; type: cell-based, Pseudomonas aeruginosa; settings: n = 4, BM2 minimal media, 18-24 hours, crystal violet
[8] = system: Enterobacter cloacae 218R1; assay: Biofilm inhibition (at least 80%), E. cloacae; type: cell-based; settings: E. cloacae 218R1; n = 3; BM2 minimal media; 18-24 hours; crystal violet
[9] = system: Klebsiella pneumonia KPLN649; assay: Biofilm inhibition (at least 80%), K. pneumonia; type: cell-based; settings: K. pneumoniae KPLN649; n = 3; BM2 minimal media; 48 hours; crystal violet
[10] = Peptide aggregation in RPMI + 10% FBS with PBMCs (microscopy); type: physicochemical; settings: 50 μg/ml, overnight
Outline: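 Peptides added to human PBMCs in RPMI with 10% FBS, incubated overnight at 37 °C, 5% CO2; aggregation assessed qualitatively by inverted light microscopy at 10× magnification.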

[11] = system: Streptococcus salivarius; assay: MIC (broth microdilution) of peptides, S. salivarius; type: cell-based; settings: mode of three biological replicates
Protocol: as §1, §2

[12] = system: P. aeruginosa PAO1; assay: MIC (broth microdilution) of peptides, P. aeruginosa; type: cell-based, Pseudomonas aeruginosa; settings: mode of three biological replicates
Protocol: as §1, §2

[13] = system: Staphylococcus haemolyticus; assay: MIC (broth microdilution) of peptides, S. haemolyticus; type: cell-based; settings: mode of three biological replicates
Protocol: as §1, §2

[14] = system: P. aeruginosa LESB58; assay: Murine model of abscess infections; type: in vivo, murine; Pseudomonas aeruginosa

Row | SMILES | Peptide/Antibiotic Concentration where at least 80% of biofilm growth was inhibited [1] [µg/mL] | Peptide/Antibiotic Concentration where at least 80% of biofilm growth was inhibited [2] [µg/mL] | MIC [3] [µg/mL] | Peptide/Antibiotic Concentration where at least 80% of biofilm growth was inhibited [4] [µg/mL] | Bacteria in nasal cavity and lungs ([5]; MRSA USA300, 0.1 mg dose, compared to DJK5) | Bacteria in nasal cavity and lungs ([6]; P. aeruginosa LESB58, 0.1 mg dose, compared to DJK5) | Peptide/Antibiotic Concentration where at least 80% of biofilm growth was inhibited [7] [µg/mL] | Peptide/Antibiotic Concentration where at least 80% of biofilm growth was inhibited [8] [µg/mL] | Peptide/Antibiotic Concentration where at least 80% of biofilm growth was inhibited [9] [µg/mL] | Peptide aggregation [10] | MIC [11] [µg/mL] | MIC [12] [µg/mL] | MIC [13] [µg/mL] | Abscess size [14] | Decrease in abscess formation [14] [%] | Weight loss ([5]; MRSA USA300 infected mice) | Weight loss ([6]; P. aeruginosa LESB58 infected mice)
1 | CC[C@@H](C)[C@@H](NC(=O)[C@@H](C)NC(=O)[C@@H](CCCNC(=N)N)NC(=O)[C@@H](Cc1c[nH]c2ccccc12)NC(=O)[C@@H](CCC(N)=O)NC(=O)[C@H](NC(=O)[C@@H](CCCNC(=N)N)NC(=O)[C@H](NC(=O)[C@H](NC(=O)[C@@H](CCCNC(=N)N)NC(=O)[C@H](NC(=O)[C@H](N)CCCNC(=N)N)C(C)C)C(C)C)[C@H](C)CC)C(C)C)C(N)=O [AB103-D, rvrvirvqwrai-NH2] (H-[dR][dV][dR][dV][dI][dR][dV][dQ][dW][dR][dA][dI]-NH2) | 0.5 | 1 | 0.8 (≈ 0.516 µM) | 1 | reduced the amount of bacteria in the nasal cavity and lungs of mice much more than DJK5 treatment | reduced the amount of bacteria in the nasal cavity and lungs of mice much more than DJK5 treatment | 2 | 1 | 2 | some small aggregates | 0.8 (≈ 0.516 µM) | 2 (≈ 1.29 µM) | 0.8 (≈ 0.516 µM) | reduced abscess size | 77 |  | 
2 | CC[C@@H](C)[C@@H](NC(=O)[C@@H](C)NC(=O)[C@@H](CCCNC(=N)N)NC(=O)[C@@H](Cc1c[nH]c2ccccc12)NC(=O)[C@@H](CCC(N)=O)NC(=O)[C@H](N)C(C)C)C(=O)N[C@H](CCCNC(=N)N)C(=O)N[C@@H](C(=O)N[C@H](CCCNC(=N)N)C(=O)N[C@@H](C(=O)N[C@@H](C(=O)N[C@H](CCCNC(=N)N)C(N)=O)[C@H](C)CC)C(C)C)C(C)C [DJK5, vqwrairvrvir-NH2] (H-[dV][dQ][dW][dR][dA][dI][dR][dV][dR][dV][dI][dR]-NH2) | 1 | 2 | 0.8 (≈ 0.516 µM) | 1 |  |  | 8 | 2 | 8 | No appreciable aggregation | 0.8 (≈ 0.516 µM) | 6 (≈ 3.87 µM) | 0.8 (≈ 0.516 µM) |  | 54 | did not prevent weight loss | did not prevent weight loss
